According to PMC11199504, “New hemisynthetic derivatives of sphaeropsidin phytotoxins triggering severe endoplasmic reticulum swelling in cancer cells” (Scientific Reports, 2024):
Like-named read-outs stand apart in the source and are kept apart here.

Key:
A549 = experiment: MTT colorimetric assay, A549; assay type: cell-based; settings: Homo sapiens, 72 h treatment, mean ± SEM of six replicates of one experiment (1: 7, 13: 6 independent experiments), resistant to apoptosis, read-out: IC50 determined by MTT assays, A549
Description: (§1) Cancer cell lines were obtained from either the European Collection of Cell Cultures (ECACC; Salisbury, UK) or the American Type Culture Collection (ATCC; Manassas, VA). The two glioma cell lines were the U373 (ECACC code 08061901) and Hs683 (ATCC HTB-138) cell lines. The carcinoma cell lines were the A549 non-small cell carcinoma cell line (ATCC code CCL 185) and the MCF-7 mammary breast carcinoma cell line (ATCC code HTB-22). The melanoma cell lines were the mouse B16F10 cells (ATCC code CRL-6475) and the human SKMEL-28 cells (ATCC code HTB-72). The ovarian cancer cell line A2780 and its cisplatin-resistant subline A2780cis were obtained from Sigma-Aldrich (St. Louis, MO, USA). Colon cancer HCT116 cells were obtained from ATCC (CCL-247) and the oxaliplatin-resistant subline HCT116/OxR established in the W. Berger lab[59]. The HeLa cell derivative KB-3-1 and the colchicine-selected, highly ABCB1-overexpressing subline KB-C-1 were generously donated by Dr. D. W. Shen, Bethesda, MD. RKOp53wt colon cancer cells together with the RKOp53KO (homozygous knock-out) subline[60] were generously provided by Dr. Vogelstein from John Hopkins University, Baltimore. The correct origin of all cell models was confirmed by STR during performance of the experiments. All cell lines were cultured in RPMI1640 culture medium supplemented with 10% heat-inactivated fetal bovine serum, 2% L-glutamine (0.6 mg/mL), 2% penicillin/streptomycin (200 IU/mL and 200 μg/mL) and 0.1 mg/mL gentamicin.
(§2) The MTT (3-(4,5-dimethylthiazol-2-yl)-2,5-diphenyl tetrazolium bromide) colorimetric assay has been conducted as described previously. Briefly, cells were seeded 24 h before their treatment with each compound for a period of 72 h. The concentrations tested ranged from 10 nM to 100 µM. Each assay was conducted in sextuplicates. The number of independent experiments is mentioned in the legend of the tables.

SKMEL-28 = experiment: MTT colorimetric assay, SKMEL-28; assay type: cell-based; settings: Homo sapiens, SK-MEL-28; 72 h treatment; mean ± SEM; resistant to apoptosis; read-out: IC50 determined by MTT assays, SKMEL-28
Description: as §1, §2

U373 = experiment: MTT colorimetric assay, U373; assay type: cell-based; settings: Homo sapiens, U373 MG; 72 h treatment; mean ± SEM; resistant to apoptosis; read-out: IC50 determined by MTT assays, U373
Description: as §1, §2

MCF7 = experiment: MTT colorimetric assay, MCF7; assay type: cell-based; settings: Homo sapiens, 72 h treatment, mean ± SEM, sensitive to apoptosis, read-out: IC50 determined by MTT assays, MCF7
Description: as §1, §2

Hs683 = experiment: MTT colorimetric assay, Hs683; assay type: cell-based; settings: Homo sapiens, Hs 683; 72 h treatment; mean ± SEM; sensitive to apoptosis; read-out: IC50 determined by MTT assays, Hs683
Description: as §1, §2

[1] = tested on: A549, SKMEL-28, U373, MCF7, Hs683, B16F10; experiment: MTT colorimetric assay, mean of the six cell lines; assay type: cell-based; settings: for IC50: mean over the six cell lines, 72 h treatment, read-out: IC50 determined by MTT assays, Mean
Description: as §1, §2

A2780 = experiment: MTT assay, A2780 (parental sensitive); assay type: cell-based; settings: Homo sapiens, A2780, 72 h, read-out: IC50 determined by MTT assays, A2780
Description: as §1, §2
(§3) SI Table 1: IC50 determined by MTT assays. Mean concentration (± standard deviation) in µM required to
(§4) reduce the viability of cells by 50% after a 72 h treatment relative to the control.
(§5) Parental sensitive models Drug-resistant models

Hct116 = experiment: MTT assay, Hct116 (parental sensitive); assay type: cell-based; settings: Homo sapiens, HCT-116, 72 h, read-out: IC50 determined by MTT assays, Hct116
Description: as §1, §2, §3, §4, §5

RKO/P53wt = experiment: MTT assay, RKO/P53wt (parental sensitive); assay type: cell-based; settings: 72 h, read-out: IC50 determined by MTT assays, RKO/P53wt
Description: as §1, §2, §3, §4, §5

KB-3-1 = experiment: MTT assay, KB-3-1 (parental sensitive); assay type: cell-based; settings: Homo sapiens, KB 3-1, 72 h, read-out: IC50 determined by MTT assays, KB-3-1
Description: as §1, §2, §3, §4, §5

[2] = tested on: Parental sensitive models; experiment: MTT assay, mean of parental sensitive models; assay type: cell-based; settings: 72 h, read-out: IC50 determined by MTT assays, mean of parental sensitive models
Description: as §1, §2, §3, §4, §5

A2780R = experiment: MTT assay, A2780R (cisplatin-resistant); assay type: cell-based; settings: 72 h, read-out: IC50 determined by MTT assays, A2780R
Description: as §1, §2, §3, §4, §5

Hct116/OxR = experiment: MTT assay, Hct116/OxR (oxaliplatin-resistant); assay type: cell-based; settings: Homo sapiens, HCT-116, 72 h, read-out: IC50 determined by MTT assays, Hct116/OxR
Description: as §1, §2, §3, §4, §5

RKO/p53ko = experiment: MTT assay, RKO/p53ko; assay type: cell-based; settings: 72 h, read-out: IC50 determined by MTT assays, RKO/p53ko
Description: as §1, §2, §3, §4, §5

KB-C-1 = experiment: MTT assay, KB-C-1 (ABCB1-overexpressing); assay type: cell-based; settings: KBC-1, 72 h, read-out: IC50 determined by MTT assays, KB-C-1
Description: as §1, §2, §3, §4, §5

human TopIIa = target: T1, human TopIIa (Homo sapiens, UniProt P11388); experiment: Cell-free decatenation assay; assay type: biochemical
T1 construct: purchased TopoGen (Port Orange, FL, USA)
Experimental: The topoisomerase (Top) activity assay kit, including kinetoplast DNA (kDNA and recombinant human TopIIa enzyme, was obtained from TopoGen (Port Orange, FL, USA), agarose from PeqLab (Erlangen, Germany), 50 × TAE buffer from Roth (Karlsruhe, Germany) and ethidium bromide solution (10 mg/mL) from Sigma-Aldrich (Taufkirchen, Germany). Decatenation assays were performed as described previously[62] with slight modifications according to the manufacturer’s protocol. 100 µM of the recently described dual topoisomerase poison P8-D6 served as a positive control, and 5% DMSO as a solvent control. Briefly, the compounds were dissolved in DMSO and diluted to 20× the concentration to be tested. 1 µL of the resulting stock solutions were mixed with 18 µL of a buffer containing 200 ng kDNA and 1 mM ATP. Subsequently, 1 µL of a 1u/µL dilution of TopIIa enzyme was added and incubated at 37 °C for 30 min. Afterwards, the reaction was stopped by addition of Stop buffer, and electrophoresis was carried out on a 1% agarose gel in TAE buffer. The gel was stained with 0.5 µg/mL ethidium bromide, washed with water, and fluorescence images were captured with the LAS4000 system (Fujifilm, Duesseldorf, Germany). All steps were carried out on ice.

T1 sequence (P11388 whole entry): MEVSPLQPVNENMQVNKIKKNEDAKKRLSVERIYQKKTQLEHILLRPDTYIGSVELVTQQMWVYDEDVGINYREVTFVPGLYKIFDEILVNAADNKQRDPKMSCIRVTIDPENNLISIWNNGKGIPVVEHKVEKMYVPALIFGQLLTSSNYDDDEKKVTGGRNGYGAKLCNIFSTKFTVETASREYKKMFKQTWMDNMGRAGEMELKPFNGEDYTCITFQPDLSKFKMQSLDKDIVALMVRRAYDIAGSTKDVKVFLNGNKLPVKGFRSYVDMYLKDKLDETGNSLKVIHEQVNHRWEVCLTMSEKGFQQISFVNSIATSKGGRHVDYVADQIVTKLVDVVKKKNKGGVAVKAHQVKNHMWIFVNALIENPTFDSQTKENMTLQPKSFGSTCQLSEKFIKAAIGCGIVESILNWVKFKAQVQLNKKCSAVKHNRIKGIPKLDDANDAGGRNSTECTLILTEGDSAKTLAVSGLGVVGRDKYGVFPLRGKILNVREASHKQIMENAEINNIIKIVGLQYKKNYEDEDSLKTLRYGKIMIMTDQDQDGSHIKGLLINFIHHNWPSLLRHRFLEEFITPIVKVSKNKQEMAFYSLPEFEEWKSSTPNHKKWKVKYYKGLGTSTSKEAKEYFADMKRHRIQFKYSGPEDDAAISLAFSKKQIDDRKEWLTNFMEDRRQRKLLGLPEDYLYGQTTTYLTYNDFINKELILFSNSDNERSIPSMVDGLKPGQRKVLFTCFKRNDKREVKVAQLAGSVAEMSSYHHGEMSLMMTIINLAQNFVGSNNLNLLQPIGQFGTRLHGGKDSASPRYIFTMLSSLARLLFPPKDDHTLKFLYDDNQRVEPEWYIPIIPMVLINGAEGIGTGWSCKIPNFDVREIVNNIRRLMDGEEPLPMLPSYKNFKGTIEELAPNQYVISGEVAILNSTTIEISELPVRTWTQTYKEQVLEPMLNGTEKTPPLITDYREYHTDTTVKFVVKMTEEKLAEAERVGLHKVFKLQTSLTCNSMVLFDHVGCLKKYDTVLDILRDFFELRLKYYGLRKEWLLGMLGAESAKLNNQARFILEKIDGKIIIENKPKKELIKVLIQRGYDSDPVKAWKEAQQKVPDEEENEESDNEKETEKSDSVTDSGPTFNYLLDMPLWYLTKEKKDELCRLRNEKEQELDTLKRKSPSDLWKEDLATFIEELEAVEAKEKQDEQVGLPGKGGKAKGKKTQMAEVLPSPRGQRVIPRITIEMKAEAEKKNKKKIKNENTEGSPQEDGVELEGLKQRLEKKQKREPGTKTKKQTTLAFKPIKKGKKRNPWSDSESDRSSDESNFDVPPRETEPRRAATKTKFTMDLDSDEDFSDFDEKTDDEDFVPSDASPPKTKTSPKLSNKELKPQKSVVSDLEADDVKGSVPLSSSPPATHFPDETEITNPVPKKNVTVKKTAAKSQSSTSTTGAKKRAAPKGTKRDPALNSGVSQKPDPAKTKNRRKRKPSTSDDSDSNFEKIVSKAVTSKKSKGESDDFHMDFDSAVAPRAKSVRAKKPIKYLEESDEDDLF

With C=C[C@]1(C)C=C2C(=O)[C@@]3(O)OC(=O)[C@@]4(CCCC(C)(C)[C@H]34)[C@@]2(O)CC1 [Compound 1, sphaeropsidin A, reference compound] the IC50 (A549) was 1710 ± 260 nM, the IC50 (SKMEL-28) was 2320 ± 150 nM and the IC50 (U373) was 2130 ± 170 nM. For the same compound, the IC50 (MCF7) was 2410 ± 350 nM, the IC50 (Hs683) was 2310 ± 230 nM and the IC50 ([1]; 72 h) was 2070 ± 150 nM. The IC50 (A2780) was 2400 ± 500 nM, the IC50 (Hct116) was 3400 ± 500 nM and the IC50 (RKO/P53wt) was 1900 ± 300 nM. The IC50 (KB-3-1) was 5400 ± 1000 nM, the IC50 [2] was 3000 nM and the IC50 (A2780R) was 2400 ± 100 nM. The IC50 (Hct116/OxR) was 1700 ± 400 nM, the IC50 (RKO/p53ko) was 1500 ± 100 nM and the IC50 (KB-C-1) was 8100 ± 700 nM. It also gave an inhibition at 500 µM (human TopIIa; at 500 µM, read-out: TopoIIa inhibition) of roughly 50%.
In the case of CC1(C=CCCCc2ccc3ccc4cccc5ccc2c3c45)C=C2C(=O)C3(O)OC(=O)C4(CCCC(C)(C)C34)C2(O)CC1 (stereo not drawn) [Compound 13], the IC50 (A549) is reported as 380 ± 30 nM, the IC50 (SKMEL-28) is reported as 310 ± 10 nM and the IC50 (U373) is reported as 570 ± 80 nM. It also gave an IC50 (MCF7) of 300 ± 20 nM, an IC50 (Hs683) of 350 ± 20 nM and an IC50 ([1]; 72 h) of 300 nM. For the same compound, the “IC50 fold lower than compound 1” value ([1]; cancer cell panel, MTT) was 5–10 times, the IC50 [1] was 370 ± 40 nM and the IC50 (A2780) was 1600 ± 20 nM. It also gave an IC50 (Hct116) of 1000 ± 100 nM, an IC50 (RKO/P53wt) of 1100 nM and an IC50 (KB-3-1) of 1900 ± 50 nM. For the same compound, the IC50 [2] was 1000 nM, the IC50 (A2780R) was 1600 ± 90 nM and the IC50 (Hct116/OxR) was 800 ± 50 nM. For the same compound, the IC50 (RKO/p53ko) was 1500 ± 50 nM, the IC50 (KB-C-1) was 3200 ± 600 nM and the “concentration from which TopIIa inhibition trend was observed” value (human TopIIa) was no less than 1 µM. The “concentration significantly different from the solvent control (TopIIa inhibition)” value (human TopIIa) was no less than 1 µM.
Work on CC1(C=CCCCc2ccc3ccc4cccc5ccc2c3c45)C=C2C(O)C3(O)OC(=O)C4(CCCC(C)(C)C34)C2(O)CC1 (stereo not drawn) [Compound 16] yielded an IC50 (A549) of 6610 ± 80 nM, an IC50 (SKMEL-28) of 7240 ± 70 nM and an IC50 (U373) of 8880 ± 190 nM. The IC50 (MCF7) was 5980 ± 190 nM, the IC50 (Hs683) was 7340 ± 200 nM and the IC50 ([1]; 72 h) was 6860 ± 530 nM. It also gave an IC50 (A2780) of 7700 ± 900 nM, an IC50 (Hct116) of 7100 ± 200 nM and an IC50 (RKO/P53wt) of 5600 ± 200 nM. The IC50 (KB-3-1) was 13800 ± 1400 nM, the IC50 [2] was 8000 nM and the IC50 (A2780R) was 8300 ± 300 nM. The IC50 (Hct116/OxR) was 6600 ± 1300 nM, the IC50 (RKO/p53ko) was 6900 ± 400 nM and the IC50 (KB-C-1) was 15200 ± 1300 nM. The “concentration from which TopIIa inhibition trend was observed” value (human TopIIa) was no less than 1 µM.
